Experiments:
[1] = target: Dual specificity mitogen-activated protein kinase kinase 1 (Homo sapiens) (UniProt Q02750); experiment: Residual activity of human MEK1 using ERK2 (K52R) as substrate at 1 uM in presence of 32P-ATP by Hotspot assay relative to control
[2] = target: G protein-coupled receptor kinase 6 (Homo sapiens) (UniProt P43250); experiment: Inhibition of human GRK6 using casein as substrate at 1 uM in presence of 32P-ATP by Hotspot assay relative to control; values are per cent of control
Chain of G protein-coupled receptor kinase 6 (Homo sapiens) (P43250 whole entry, looked up): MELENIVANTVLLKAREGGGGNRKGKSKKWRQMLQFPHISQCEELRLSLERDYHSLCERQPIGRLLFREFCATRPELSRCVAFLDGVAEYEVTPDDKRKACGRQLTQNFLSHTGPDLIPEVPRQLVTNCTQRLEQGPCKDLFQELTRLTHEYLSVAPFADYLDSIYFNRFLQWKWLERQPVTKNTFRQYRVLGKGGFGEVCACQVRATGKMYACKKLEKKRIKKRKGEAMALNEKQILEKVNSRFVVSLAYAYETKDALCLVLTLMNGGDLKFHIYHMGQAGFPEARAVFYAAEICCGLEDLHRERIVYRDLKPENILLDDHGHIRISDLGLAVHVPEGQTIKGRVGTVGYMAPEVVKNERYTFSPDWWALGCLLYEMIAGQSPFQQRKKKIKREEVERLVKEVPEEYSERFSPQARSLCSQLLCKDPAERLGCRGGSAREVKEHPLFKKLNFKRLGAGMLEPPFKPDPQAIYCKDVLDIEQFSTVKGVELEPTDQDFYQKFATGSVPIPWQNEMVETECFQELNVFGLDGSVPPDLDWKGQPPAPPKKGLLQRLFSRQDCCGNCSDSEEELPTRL

[3] = target: Dual specificity mitogen-activated protein kinase kinase 2 (Homo sapiens) (UniProt P36507); experiment: Inhibition of human MEK2 using ERK2 (K52R) as substrate at 1 uM in presence of 32P-ATP by Hotspot assay relative to control; values are per cent of control
Chain of Dual specificity mitogen-activated protein kinase kinase 2 (Homo sapiens) (P36507 whole entry): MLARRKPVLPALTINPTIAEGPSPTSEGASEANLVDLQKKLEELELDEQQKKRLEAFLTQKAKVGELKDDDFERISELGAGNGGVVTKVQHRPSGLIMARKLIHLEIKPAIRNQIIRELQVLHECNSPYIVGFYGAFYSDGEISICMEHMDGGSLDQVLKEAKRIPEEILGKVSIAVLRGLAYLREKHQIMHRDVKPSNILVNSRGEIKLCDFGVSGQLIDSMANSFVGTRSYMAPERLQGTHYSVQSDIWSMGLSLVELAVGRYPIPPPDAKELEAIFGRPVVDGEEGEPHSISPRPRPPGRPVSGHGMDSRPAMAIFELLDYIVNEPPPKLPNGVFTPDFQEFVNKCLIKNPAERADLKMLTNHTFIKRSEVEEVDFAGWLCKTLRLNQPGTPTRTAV

[4] = target: T1, Tyrosine-protein kinase JAK3 (Homo sapiens) (UniProt P52333); experiment: Inhibition of human JAK3 using GGEEEEYFELVKKKK as substrate at 1 uM in presence of 32P-ATP by Hotspot assay relative to control; values are per cent of control
T1 sequence (whole entry): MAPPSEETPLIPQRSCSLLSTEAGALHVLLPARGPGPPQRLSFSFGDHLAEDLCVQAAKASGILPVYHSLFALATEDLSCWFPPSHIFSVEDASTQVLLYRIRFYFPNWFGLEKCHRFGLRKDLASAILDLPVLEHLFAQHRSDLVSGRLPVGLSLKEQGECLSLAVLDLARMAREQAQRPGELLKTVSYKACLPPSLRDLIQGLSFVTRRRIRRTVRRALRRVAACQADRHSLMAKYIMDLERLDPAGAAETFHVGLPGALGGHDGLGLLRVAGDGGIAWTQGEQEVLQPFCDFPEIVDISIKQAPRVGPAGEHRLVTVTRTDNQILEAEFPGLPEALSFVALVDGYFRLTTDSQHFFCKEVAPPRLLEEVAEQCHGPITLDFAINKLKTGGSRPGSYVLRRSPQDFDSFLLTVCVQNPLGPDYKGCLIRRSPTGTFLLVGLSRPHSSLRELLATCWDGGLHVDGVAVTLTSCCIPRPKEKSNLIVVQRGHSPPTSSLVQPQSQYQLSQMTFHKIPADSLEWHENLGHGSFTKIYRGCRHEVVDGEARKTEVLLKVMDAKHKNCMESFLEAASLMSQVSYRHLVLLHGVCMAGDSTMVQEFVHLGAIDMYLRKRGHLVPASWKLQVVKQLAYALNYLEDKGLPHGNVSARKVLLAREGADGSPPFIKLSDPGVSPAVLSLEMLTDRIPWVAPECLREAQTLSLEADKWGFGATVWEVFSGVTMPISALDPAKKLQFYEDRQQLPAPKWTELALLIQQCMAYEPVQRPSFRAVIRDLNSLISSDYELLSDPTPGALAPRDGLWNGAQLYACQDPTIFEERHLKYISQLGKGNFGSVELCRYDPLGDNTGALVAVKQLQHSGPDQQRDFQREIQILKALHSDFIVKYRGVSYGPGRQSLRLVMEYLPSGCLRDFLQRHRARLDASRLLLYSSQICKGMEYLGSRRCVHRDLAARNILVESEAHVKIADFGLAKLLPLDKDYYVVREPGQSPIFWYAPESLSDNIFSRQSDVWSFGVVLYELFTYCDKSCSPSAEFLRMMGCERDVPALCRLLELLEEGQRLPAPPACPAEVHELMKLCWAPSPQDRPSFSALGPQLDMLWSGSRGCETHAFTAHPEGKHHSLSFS

[5] = target: RAC-gamma serine/threonine-protein kinase (Homo sapiens) (UniProt Q9Y243); experiment: Inhibition of human AKT3 using KGSGSGRPRTSSFAEG as substrate at 1 uM in presence of 32P-ATP by Hotspot assay relative to control; values are per cent of control
Chain of RAC-gamma serine/threonine-protein kinase (Homo sapiens) (Q9Y243 whole entry): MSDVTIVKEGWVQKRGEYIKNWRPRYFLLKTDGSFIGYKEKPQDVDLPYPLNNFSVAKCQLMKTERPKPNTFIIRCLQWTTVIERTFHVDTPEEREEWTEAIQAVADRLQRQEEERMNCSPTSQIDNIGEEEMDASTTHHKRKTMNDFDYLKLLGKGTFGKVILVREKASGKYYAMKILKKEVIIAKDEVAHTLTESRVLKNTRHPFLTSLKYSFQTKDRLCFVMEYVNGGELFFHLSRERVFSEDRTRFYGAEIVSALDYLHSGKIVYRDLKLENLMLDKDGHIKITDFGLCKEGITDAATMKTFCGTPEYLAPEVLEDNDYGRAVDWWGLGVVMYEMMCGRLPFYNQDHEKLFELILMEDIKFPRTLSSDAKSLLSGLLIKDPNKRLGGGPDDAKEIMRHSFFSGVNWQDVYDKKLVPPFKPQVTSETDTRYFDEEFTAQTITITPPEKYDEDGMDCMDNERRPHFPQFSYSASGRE

[6] = target: NT-3 growth factor receptor (Homo sapiens) (UniProt Q16288); experiment: Inhibition of human TRKC using poly[Glu:Tyr] (4:1) as substrate at 1 uM in presence of 32P-ATP by Hotspot assay relative to control; values are per cent of control
Chain of NT-3 growth factor receptor (Homo sapiens) (Q16288 32-839 limits assumed): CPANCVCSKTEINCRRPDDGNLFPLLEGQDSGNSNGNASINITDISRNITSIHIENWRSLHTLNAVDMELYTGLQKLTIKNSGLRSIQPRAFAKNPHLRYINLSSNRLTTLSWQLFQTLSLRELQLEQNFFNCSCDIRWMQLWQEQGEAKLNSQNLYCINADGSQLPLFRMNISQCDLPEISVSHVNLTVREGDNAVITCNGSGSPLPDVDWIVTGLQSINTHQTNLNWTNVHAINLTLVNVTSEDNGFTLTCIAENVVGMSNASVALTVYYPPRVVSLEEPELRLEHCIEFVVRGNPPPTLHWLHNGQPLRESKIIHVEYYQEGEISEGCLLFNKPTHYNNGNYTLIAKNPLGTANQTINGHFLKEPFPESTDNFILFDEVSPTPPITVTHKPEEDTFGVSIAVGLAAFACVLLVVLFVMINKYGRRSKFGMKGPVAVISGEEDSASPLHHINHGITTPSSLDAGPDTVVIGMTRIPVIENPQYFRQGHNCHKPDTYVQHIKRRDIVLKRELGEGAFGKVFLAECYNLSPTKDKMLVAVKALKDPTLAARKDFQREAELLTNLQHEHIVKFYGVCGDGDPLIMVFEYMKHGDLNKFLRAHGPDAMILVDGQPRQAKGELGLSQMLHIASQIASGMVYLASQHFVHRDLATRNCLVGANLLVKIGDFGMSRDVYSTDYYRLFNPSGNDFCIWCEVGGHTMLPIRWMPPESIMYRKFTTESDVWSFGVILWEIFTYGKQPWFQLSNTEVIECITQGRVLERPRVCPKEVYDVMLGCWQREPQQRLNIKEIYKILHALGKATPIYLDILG

[7] = target: Serine/threonine-protein kinase 26 (Homo sapiens) (UniProt Q9P289); experiment: Inhibition of human MST4 using myelin basic protein as substrate at 1 uM in presence of 32P-ATP by Hotspot assay relative to control; values are per cent of control
Chain of Serine/threonine-protein kinase 26 (Homo sapiens) (Q9P289 2-416 limits assumed): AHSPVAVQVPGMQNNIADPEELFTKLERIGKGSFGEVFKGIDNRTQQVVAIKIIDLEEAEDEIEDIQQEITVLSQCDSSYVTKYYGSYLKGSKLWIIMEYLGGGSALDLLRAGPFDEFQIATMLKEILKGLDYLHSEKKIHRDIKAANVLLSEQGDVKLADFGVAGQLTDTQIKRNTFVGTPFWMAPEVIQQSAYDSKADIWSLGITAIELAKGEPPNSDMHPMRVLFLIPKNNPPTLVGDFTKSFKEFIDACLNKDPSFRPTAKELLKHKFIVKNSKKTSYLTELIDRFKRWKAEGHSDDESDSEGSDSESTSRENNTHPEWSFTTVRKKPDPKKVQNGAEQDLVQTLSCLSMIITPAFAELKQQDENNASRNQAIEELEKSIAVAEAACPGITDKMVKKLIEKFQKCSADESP

[8] = target: T2, Serine/threonine-protein kinase Nek9 (Homo sapiens) (UniProt Q8TD19); experiment: Inhibition of human NEK9 using myelin basic protein as substrate at 1 uM in presence of 32P-ATP by Hotspot assay relative to control; values are per cent of control
T2 sequence (whole entry): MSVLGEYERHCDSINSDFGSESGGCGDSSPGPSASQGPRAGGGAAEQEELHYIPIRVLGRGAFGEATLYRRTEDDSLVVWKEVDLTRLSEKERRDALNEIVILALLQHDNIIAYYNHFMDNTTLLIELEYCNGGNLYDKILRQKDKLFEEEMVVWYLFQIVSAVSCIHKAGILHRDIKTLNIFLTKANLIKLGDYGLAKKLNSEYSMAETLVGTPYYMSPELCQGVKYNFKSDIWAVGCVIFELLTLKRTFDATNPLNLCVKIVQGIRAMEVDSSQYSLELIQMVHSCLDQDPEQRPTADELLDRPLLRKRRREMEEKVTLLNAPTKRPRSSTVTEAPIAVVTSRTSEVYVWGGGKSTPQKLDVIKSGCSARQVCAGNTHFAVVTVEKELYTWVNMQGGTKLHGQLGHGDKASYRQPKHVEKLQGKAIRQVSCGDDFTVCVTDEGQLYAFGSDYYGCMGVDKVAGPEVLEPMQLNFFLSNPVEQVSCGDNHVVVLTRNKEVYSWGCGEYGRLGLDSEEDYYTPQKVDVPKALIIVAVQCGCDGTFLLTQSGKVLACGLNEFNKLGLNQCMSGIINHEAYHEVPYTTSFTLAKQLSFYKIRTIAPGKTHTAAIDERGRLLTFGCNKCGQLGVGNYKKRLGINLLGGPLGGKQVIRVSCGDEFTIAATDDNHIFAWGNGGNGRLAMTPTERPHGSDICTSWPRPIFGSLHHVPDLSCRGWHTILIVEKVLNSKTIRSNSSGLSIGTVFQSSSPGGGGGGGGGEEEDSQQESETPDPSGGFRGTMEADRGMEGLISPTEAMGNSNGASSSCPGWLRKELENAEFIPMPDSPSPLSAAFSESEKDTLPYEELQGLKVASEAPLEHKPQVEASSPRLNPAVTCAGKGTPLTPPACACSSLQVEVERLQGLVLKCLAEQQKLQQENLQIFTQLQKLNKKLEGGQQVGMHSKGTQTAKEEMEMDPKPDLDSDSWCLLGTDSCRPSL

Chain of Dual specificity mitogen-activated protein kinase kinase 1 (Homo sapiens) (Q02750 whole entry): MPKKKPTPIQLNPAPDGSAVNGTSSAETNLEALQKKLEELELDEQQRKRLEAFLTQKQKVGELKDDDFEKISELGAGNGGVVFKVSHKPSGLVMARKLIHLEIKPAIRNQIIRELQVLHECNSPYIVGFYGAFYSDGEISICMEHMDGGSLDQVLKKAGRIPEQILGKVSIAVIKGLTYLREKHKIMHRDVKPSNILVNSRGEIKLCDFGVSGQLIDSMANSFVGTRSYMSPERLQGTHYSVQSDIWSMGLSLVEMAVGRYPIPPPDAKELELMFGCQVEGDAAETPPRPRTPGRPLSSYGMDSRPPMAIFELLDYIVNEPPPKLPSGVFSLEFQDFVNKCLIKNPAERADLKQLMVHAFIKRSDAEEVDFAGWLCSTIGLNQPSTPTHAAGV

| Compound | residual activity [1] | residual activity [2] | residual activity [3] | residual activity [4] | residual activity [5] | residual activity [6] | residual activity [7] | residual activity [8] |
| --- | --- | --- | --- | --- | --- | --- | --- | --- |
| Cc1cc(-c2cnc(N)c3c(-c4ccc5scnc5c4)csc23)n(C)n1 | 59.7% | 91.9% | 97.8% | 96.6% | 96.1% | 95.3% | 93.5% | 91% |
| CC(C)S(=O)(=O)c1ccc2nccc(Nc3ccc4scnc4c3)c2c1 | 102% | 101% | 105% | 102% | 94.3% | 87.2% | 95.9% | 86.7% |
| CNC(=O)c1ccc2c(c1)ncn2-c1ccc(CC(=O)OC(C)(C)C)cc1 | 86.8% | 96.4% | 98.3% | 94.3% | 98.4% | 98% | 97.5% | 102% |

From ChEMBL document CHEMBL5649166, “RIP3 induces apoptosis independent of pronecrotic kinase activity” (Mol Cell, 2014)
